In patent publication US11427605B2, “Crystalline forms of 5-chloro-N4-[-2-(dimethylphosphoryl) phenyl]-N2-{2-methoxy-4-[4-(4-methylpiperazin-1-yl) piperidin-1-yl] phenyl} pyrimidine-2,4-diamine” (ARIAD Pharmaceuticals, Inc., priority 2014, dated 2022):
One block for each molecule: values may come before it.

Assays:
[1] = Remeasurement by XRPD after storage at ambient conditions; assay type: physicochemical
Protocol: For each experiment, the anti-solvent was added to each solvent vial, with a solvent to anti-solvent ratio of 1:0.25. In the cases where no precipitation occurred, this ratio was increased to 1:1, and if again no precipitation occurred the ratio was increased to 1:4, with a waiting time of 60 minutes between the additions (up to the third addition) and 35 minutes between the third addition and fourth addition. When no crystallization occurred or not enough solids precipitated for separation, samples were kept at 5° C. for 17 hours. The precipitated solids were separated from the liquids by centrifugation and decantation. When decantation could not be applied, the liquid was carefully removed using Pasteur's pipettes. The solids were dried at 200 mbar for 17 hours and analyzed by XRPD and digital imaging. In the cases where no precipitation occurred, the solvents were evaporated at 200 mbar for 17 hours prior to lowering the vacuum to 5 mbar. All obtained solids were analyzed by XRPD and digital imaging. The measuring plates containing the final solid were stored at ambient temperature for 5 weeks. The solid form was assessed again by XRPD. The arrows in Table 18 indicate if the form changed during storage.
A total of 68 slurry experiments were performed with brigatinib both at room temperature (20° C.) and 40° C., using 34 solvents. In all cases, a solvent volume of 250 μL was used. The slurries were stirred for two weeks. At the end of the slurry time, the vials were centrifuged and solids and mother liquids separated. The solids were analyzed wet and dry by XRPD and digital imaging. The measuring plates were then stored at ambient conditions for 3-4 weeks and another XRPD was obtained of the solid, any form change is shown by an arrow.
After completion of the cycling program, the solids were separated from the mother liquids by centrifugation, dried under 200 mbar for 48 hours (2-ethoxyethanol for 283 hours) and analyzed by XRPD and digital imaging. For the applied crystallization conditions and corresponding obtained solid forms, see Table 24. Solid form (or mixture) following the arrow (→) was obtained upon remeasurement by XRPD after storage of the measuring plates at ambient conditions for 5 weeks.
In Table 27, the occurrence of solid forms of brigatinib is given, together with the crystallization methods from which they crystallized and the related solvents. The table provides the results of over 600 experiments with solid forms measured by XRPD wet and/or dry (wet and dry count as separate experiments). In eight cases, no form assignment was made due to low yield. The solid form(s) following the arrow was/were obtained upon remeasurement by XRPD after storage of the measuring plates at ambient conditions for several weeks (2-5 weeks).

[2] = Vapor diffusion onto solids experiments; assay type: physicochemical; conditions: room temperature, two weeks
Protocol: For the 34 vapor diffusion onto solids experiments, amorphous brigatinib was prepared by grinding the starting material for 4 hours. The vials containing the amorphous brigatinib were left open and placed in closed 40 mL vials containing 2 mL of solvent (see Table 21). The amorphous brigatinib was exposed to solvent vapors at room temperature for two weeks. At the end of the experiment time, the solids were harvested wet and dry and analyzed by XRPD and digital imaging. For the applied crystallization conditions and corresponding obtained solid forms see Table 22.

[3] = for Temperature at which (partial) conversion to Form A was observed / Temperature at which conversion to Form A was complete: sample started as the labelled form; for Temperature of dehydration to anhydrous Form B / Temperature of solid-solid transition to Form A: ambient humidity, increasing temperature; for Temperature of solid-solid transition to Form A: not reversible
Protocol: High resolution X-ray powder diffraction patterns disclosed herein were collected on a D8 Advance system in the Brag-Brentano geometry equipped with LynxEye solid state detector. The radiation used for collecting the data was CuKα1 (λ=1.54056 Å) monochromatized by germanium crystal. The patterns were collected in the range of 4-41.5°2θ, with a step in the range of 0.016 °2θ without further processing. All patterns were taken at room temperature, approximately 295 K. The material was placed in a boron glass capillary of 0.3 mm diameter. For variable humidity and variable temperature experiments disclosed herein, an ANSYCO HT chamber was used. The material was placed on a fixed sample holder that was mounted inside the chamber. The humidity was applied locally and varied from 10% to 80% (dew point). The temperature variation rate was 10° C./min.
Data was collected for Forms A, B, C, and D almost immediately after reaching the target temperature (within approximately 10 min).
For Form A, the temperatures used in the experiment were 25, 40, 60, 100, 120, 140, 150, 160, 170, 180, 190, and 200° C. Data collection lasted 20 min per temperature and the stabilization time in between was 10 min.
For Form B, the temperatures used in the experiment were 25, 40, 60, 100, 120, 140, 150, 155, 160, 165, 170, 180, and 190° C. Data collection lasted 45 min per temperature and the stabilization time in between was 10 min.
For Form C, the temperatures used in the experiment were 25, 40, 60, 70, 80, 100, 120, 140, 150, 155, 160, 165, 170, 175, 180, 190, and 200° C. Data collection lasted 40 min per temperature and the stabilization time in between was 10 min.
For Form D, the temperatures used in the experiment were 25, 35, 45, 55, 65, 75, 85, 100, 120, 140, 150, 155, 160, 165, 170, 175, 180, 190, and 200° C. Data collection lasted 10 min for temperatures 25-85° C. with a stabilization time of 1 min, and 40 min for temperatures 100-25° C. with a stabilization time of 10 min.

[4] = Dehydration of Forms C and D (drying); assay type: physicochemical
Protocol: In Table 25, a list of drying conditions for Form C are presented together with the final solid form.
In Table 26, a list of drying processes of Form D are presented. Form D under 5 mbar pressure and at 60° C. led to the formation of Form B after 24 h. In some instances, small quantities of Form C were visible on the XRPD patterns, even after 5 days of drying. This observation could be attributed to different particle morphology (fine particles vs. agglomerates/aggregates). […] In general, depending on the time and pressure, Forms B and C occur.

[5] = Variable humidity XRPD; assay type: physicochemical; conditions: 30° C.
Protocol: The temperature variation rate was 10° C./min.
The relative humidity was increased from the starting amount, brought up to the maximum, then dried back to the minimum value. The data collection time was 41 min at each step, time starting after equilibration of the relative humidity.
The peaks shifts were reversible at RH of about 30%. A sample of Form A was then exposed to 80% RH for 15 h. The peaks shifts had occurred after 90 min, and the extent of the shifts remained constant throughout the exposure at 80% RH for 15 h. Upon return to 10% RH, the peaks shifted to their original position. To investigate the amount of water adsorbed, a new sample of Form A was exposed for 2 h at 80% and a TGMS of this sample was measured.
For Form B, the relative humidity was measured at 30° C. The RH % values measured were 10, 30, 50, 60, 65, 70, 75, and 80%. […] At 80% RH the conversion to Form C was completed. Upon desorption, Form C dehydrates to Form B, starting at about 30% RH. At 10% RH the conversion to Form B was completed.
For Form C, a hydrate, the relative humidity was measured at 30° C. The experiment was performed starting at the maximum RH and dehydrated, then rehydrated back up to the maximum value. The RH % values measured were 10, 15, 20, 25, 30, 35, 40, 60, and 80%. Upon desorption, Form C dehydrated to Form B, starting at about 25% RH. At 10% RH, the conversion to Form B was complete. Upon sorption, Form B converted to Form C, starting at about 60% RH. At 80% RH the conversion to Form C was complete. The results are consistent with the corresponding experiments of Form B.
For Form D, a hydrate, the relative humidity was measured at 30° C. The experiment was performed starting at the maximum RH and dehydrated, then rehydrated back up to the maximum value. The RH % values measured were 10, 15, 20, 25, 30, 35, 40, 60, and 80%. […] Form C dehydrated to Form B, starting at about 20% RH. At 10% RH, the conversion to Form B was complete. Upon sorption, Form B converted to Form C, starting at about 40% RH. At 80% RH, the conversion to Form C was complete.

[6] = sample started as the labelled form

SMILES: COc1cc(N2CCC(N3CCN(C)CC3)CC2)ccc1Nc1ncc(Cl)c(Nc2ccccc2P(C)(C)=O)n1 [Form C, brigatinib]
- Temperatures at which the form is unstable ([3]; VT-XRPD): higher than 25 °C
- Temperature at which (partial) conversion to Form A was observed ([3]; VT-XRPD): 120 °C
- Temperature at which conversion to Form A was complete ([3]; VT-XRPD): 155 °C
- Temperature of dehydration to anhydrous Form B [3]: about 40 °C
- Temperature of solid-solid transition to Form A [3]: about 150 °C
- final solid form after drying ([4]; 30° C., 1.5 h, ambient pressure): appears to be stable
- final solid form after drying ([4]; 40° C., 1 h, ambient pressure): converted to Form B
- RH at which Form B starts to convert to hydrated Form C (sorption) [5, 6]: about 60 % RH
- RH at which conversion to Form B was complete (desorption) [5, 6]: 10 % RH
- RH at which conversion to Form C was complete (sorption) [5, 6]: 80 % RH

SMILES: COc1cc(N2CCC(N3CCN(C)CC3)CC2)ccc1Nc1ncc(Cl)c(Nc2ccccc2P(C)(C)=O)n1 [A+L, brigatinib]
- Solid form after storage (XRPD) ([1]; mixtures A+L, ambient conditions for 3 weeks): still a mixture of A+L

SMILES: COc1cc(N2CCC(N3CCN(C)CC3)CC2)ccc1Nc1ncc(Cl)c(Nc2ccccc2P(C)(C)=O)n1 [Form E, brigatinib]
- Solid form after storage (XRPD) ([1]; several weeks at ambient temperature): may revert to Form A

SMILES: COc1cc(N2CCC(N3CCN(C)CC3)CC2)ccc1Nc1ncc(Cl)c(Nc2ccccc2P(C)(C)=O)n1 [Form D, brigatinib]
- Temperature at which Form D had converted (partially) to hydrated Form C ([3]; VT-XRPD): 35 °C
- Temperature at which Form D had converted to dehydrated Form B ([3]; VT-XRPD): 45 °C
- Temperatures at which the form is unstable ([3]; VT-XRPD): higher than 25 °C
- Temperature at which (partial) conversion to Form A was observed ([3]; VT-XRPD): 120 °C
- Temperature at which conversion to Form A was complete ([3]; VT-XRPD): 150 °C
- Temperature of dehydration to anhydrous Form B [3]: about 40 °C
- Temperature of solid-solid transition to Form A [3]: about 150 °C
- final solid form after drying ([4]; 5 mbar, 60° C., 24 h): Form B
- final solid form after drying ([4]; 50 mbar, 60° C., 86 h): mixture of Forms B+C
- final solid form after drying ([4]; 50 mbar, 60° C., 110 h): Form B
- final solid form after drying ([4]; 15 h at 60° C., 5 mbar): C + D
- final solid form after drying ([4]; 20 h (RT), 5 mbar): B + C
- final solid form after drying ([4]; 20 h at 60° C., 5 mbar): B + C
- final solid form after drying ([4]; 28 h at 60° C., 5 mbar): B + C
- final solid form after drying ([4]; 65 h at 60° C., 50 mbar): B + C
- final solid form after drying ([4]; 86 h at 60° C., 50 mbar): B + C
- final solid form after drying ([4]; 5 days at 60° C., 5 mbar): B + C
- final solid form after drying ([4]; 8 days, closed vial at RT, ambient pressure): B + C
- RH at which Form B starts to convert to hydrated Form C (sorption) [5, 6]: about 40 % RH
- RH at which Form C starts to dehydrate to Form B (desorption) [5, 6]: about 20 % RH
- RH at which conversion to Form B was complete (desorption) [5, 6]: 10 % RH
- RH at which conversion to Form C was complete (sorption) [5, 6]: 80 % RH
- Solid form at first measurements ([5]; 80% RH, freshly prepared Form D): already partially transformed to Form C

Other lines, results leading:

- Solid form after storage (XRPD) ([1]; mixture of Forms A+J, ambient conditions for 3 weeks): still a mixture of Forms A+J
SMILES: COc1cc(N2CCC(N3CCN(C)CC3)CC2)ccc1Nc1ncc(Cl)c(Nc2ccccc2P(C)(C)=O)n1 [Forms A+J, brigatinib]

- Form dry (XRPD) ([2]; Chloroform vapors, no solids after 2 weeks): A + Am
- Form dry (XRPD) ([2]; Dichloromethane vapors, no solids after 2 weeks): Am
- Form dry (XRPD) ([2]; Water vapors): A + B + C
SMILES: COc1cc(N2CCC(N3CCN(C)CC3)CC2)ccc1Nc1ncc(Cl)c(Nc2ccccc2P(C)(C)=O)n1 [amorphous brigatinib]

- Solid form after storage (XRPD) ([1]; heating or storage at ambient conditions for 8 weeks): desolvated to give Form A
SMILES: COc1cc(N2CCC(N3CCN(C)CC3)CC2)ccc1Nc1ncc(Cl)c(Nc2ccccc2P(C)(C)=O)n1 [Form F, brigatinib]

- Solid form after storage (XRPD) ([1]; ambient conditions for 1-3 weeks): had partially transformed to Form A
SMILES: COc1cc(N2CCC(N3CCN(C)CC3)CC2)ccc1Nc1ncc(Cl)c(Nc2ccccc2P(C)(C)=O)n1 [Form H, brigatinib]

- Solid form after storage (XRPD) ([1]; ambient conditions for 5 weeks): had transformed to Form A
SMILES: COc1cc(N2CCC(N3CCN(C)CC3)CC2)ccc1Nc1ncc(Cl)c(Nc2ccccc2P(C)(C)=O)n1 [Form G, brigatinib]

- Solid form after storage (XRPD) ([1]; mixture of Forms A+K, ambient conditions for 3 weeks): still a mixture of Forms A+K
SMILES: COc1cc(N2CCC(N3CCN(C)CC3)CC2)ccc1Nc1ncc(Cl)c(Nc2ccccc2P(C)(C)=O)n1 [Forms A+K, brigatinib]
